Like-named read-outs stand apart in the source and are kept apart here.
Legend:
[1] = test system: engorged adult female cattle ticks (Boophilus microplus); assay: Boophilus microplus injection test; type: in vivo; details: application rate 20 μg/animal, assessed after 7 days
Experimental: Boophilus microplus—Injection Test
Solvent: dimethyl sulphoxide
To produce an appropriate active ingredient formulation, 10 mg of active ingredient are mixed with 0.5 ml of solvent and the concentrate is diluted with solvent to the desired concentration.
1 μl of the active ingredient solution is injected into the abdomen of 5 engorged adult female cattle ticks (Boophilus microplus). The animals are transferred into dishes and kept in a climate-controlled room.
The efficacy is assessed after 7 days by laying of fertile eggs. Eggs which are not visibly fertile are stored in a climate-controlled cabinet until the larvae hatch after about 42 days. An efficacy of 100% means that none of the ticks has laid any fertile eggs; 0% means that all the eggs are fertile.

[2] = log P by reversed-phase HPLC analogously to OECD Guideline 117; type: physicochemical; details: for chromatographic logP: reversed-phase C18 HPLC column
Experimental: The log P values were determined analogously to OECD Guideline 117 (EC Directive 92/69/EEC) by HPLC (high-performance liquid chromatography) using reversed-phase columns (C 18), by the following methods:
[a] LC-MS determination in the acidic range is effected at pH 2.7 with 0.1% aqueous formic acid and acetonitrile (containing 0.1% formic acid) as eluents with a linear gradient from 10% acetonitrile to 95% acetonitrile; or with 0.025% aqueous trifluoroacetic acid and acetonitrile (containing 0.025% trifluoroacetic acid) as eluents with a linear gradient from 50% acetonitrile to 80% acetonitrile.
[b] LC-MS determination in the neutral range is effected at pH 7.8 with 0.001 molar aqueous ammonium hydrogencarbonate solution and acetonitrile as eluents; linear gradient from 10% acetonitrile to 95% acetonitrile.
Calibration is effected with solutions of a homologous series of unbranched alkan-2-ones (having 3 to 16 carbon atoms) with known log P values (log P values determined on the basis of the retention times by linear interpolation between two successive alkanones).

[3] = test system: greenhouse red spider mite (Tetranychus urticae); assay: Tetranychus urticae spray test, OP-resistant (bean leaf discs); type: in vivo; details: after 6 days; for pest or weed control at 500 g/ha: Tetranychus urticae, foliar, 144 h, read-out: efficacy (spider mites killed)
Experimental: Tetranychus urticae—Spray Test, OP-Resistant
Solvent: 78.0 parts by weight of acetone • • 1.5 parts by weight of dimethylformamide
Emulsifier: alkylaryl polyglycol ether
To produce an appropriate active ingredient formulation, 1 part by weight of active ingredient is dissolved using the specified parts by weight of solvent and made up with water containing an emulsifier concentration of 1000 ppm until the desired concentration is attained. To produce further test concentrations, the preparation is diluted with emulsifier-containing water.
Discs of bean leaves (Phaseolus vulgaris) infested by all stages of the greenhouse red spider mite (Tetranychus urticae) are sprayed with an active ingredient formulation of the desired concentration.
After 6 days, the efficacy in % is determined. 100% means that all the spider mites have been killed; 0% means that none of the spider mites have been killed.

[4] = test system: southern root-knot nematode (Meloidogyne incognita); assay: Meloidogyne incognita test (sand, lettuce, acetone solvent, 14 days); type: in vivo; details: application rate 20 ppm, after 14 days; for pest or weed control at 20 ppm: Meloidogyne incognita, 336 h, read-out: nematicidal efficacy (formation of galls)
Experimental: Meloidogyne incognita Test
Solvent: 125.0 parts by weight of acetone
To produce an appropriate active ingredient formulation, 1 part by weight of active ingredient is mixed with the stated amount of solvent and the concentrate is diluted with water to the desired concentration.
Vessels are filled with sand, active ingredient solution, an egg/larvae suspension of the southern root-knot nematode (Meloidogyne incognita) and lettuce seeds. The lettuce seeds germinate and the plants develop. The galls develop on the roots
After 14 days, the nematicidal efficacy in % is determined by the formation of galls. 100% means that no galls were found; 0% means that the number of galls on the treated plants corresponds to the untreated control.

[5] = [a] acidic range, pH 2.7, formic acid (or trifluoroacetic acid)/acetonitrile
[6] = [b] neutral range, pH 7.8, ammonium hydrogencarbonate/acetonitrile
[7] = pH 2.7, running text, [a] acidic range, pH 2.7, read-out: log P[a]
[8] = pH 2.7, table column, [a] acidic range, pH 2.7, formic acid (or trifluoroacetic acid)/acetonitrile, read-out: LogP[a]

Structure (SMILES)	efficacy (no fertile eggs laid) [1] [%]	LogP[a] [2, 5]	efficacy (spider mites killed) ([3]; application rate 500 g/ha) [%]	nematicidal efficacy (formation of galls) [4] [%]	LogP[b] [2, 6]	chromatographic logP [2, 7]	chromatographic logP [2, 8]	pest or weed control at 500 g/ha ([3]; application rate 500 g/ha) [%]	pest or weed control at 20 ppm [4] [%]	chromatographic logP ([2]; pH 7.8, running text, [b] neutral range, pH 7.8, read-out: log P[b])	chromatographic logP ([2]; pH 7.8, table column, [b] neutral range, pH 7.8, ammonium hydrogencarbonate/acetonitrile, read-out: LogP[b])	efficacy (spider mites killed) ([3]; application rate 100 g/ha) [%]
Cc1cc(C)c([S+]([O-])CC(F)(F)F)cc1-n1ncc(=O)n(C)c1=O (racemic) [compound 4]	100	2.01	100	–	–	–	–	–	–	–	–	–
Cc1cc(C)c([S+]([O-])CC(F)(F)F)cc1-n1ncc(=O)n(CC(F)(F)F)c1=O (racemic) [compound 6]	100	2.73	90	–	–	–	–	–	–	–	–	–
Cc1cc(F)c(-n2ncc(=O)n(CC(F)(F)F)c2=O)cc1[S+]([O-])CC(F)(F)F (racemic) [compound 9]	100	2.65	100	100	–	–	–	–	–	–	–	–
O=c1cnn(-c2cc([S+]([O-])CC(F)(F)F)c(Cl)cc2Cl)c(=O)n1CC(F)(F)F (racemic) [compound 11]	100	3.21	100	90	–	–	–	–	–	–	–	–
CCn1c(=O)cnn(-c2cc([S+]([O-])CC(F)(F)F)c(C)cc2F)c1=O (racemic) [compound 21]	100	2.24	100	100	2.22	–	–	–	–	–	–	–
Cc1cc(F)c(-n2ncc(=O)n(CC(C)C)c2=O)cc1[S+]([O-])CC(F)(F)F (racemic) [compound 22]	100	2.92	100	90	2.9	–	–	–	–	–	–	–
Cc1cc(F)c(-n2ncc(=O)n(C)c2=O)cc1SCC(F)(F)F [Ex. No. 3, 2-{2-Fluoro-4-methyl-5-[(2,2,2-trifluoroethyl)sulphanyl]phenyl}-4-methyl-1,2,4-triazine-3,5(2H,4H)-dione]	100	–	–	–	–	2.94	2.94	100	90	–	–	–
Cc1cc(F)c(-n2ccc(=O)n(C)c2=O)cc1[S+]([O-])CC(F)(F)F (centres unmarked) [Ex. No. 54, 1-{2-Fluoro-4-methyl-5-[(2,2,2-trifluoroethyl)sulphinyl]phenyl}-3-methylpyrimidine-2,4(1H,3H)-dione]	100	–	–	–	–	1.66	1.61	100	100	1.61	1.66	–
CCn1c(=O)cnn(-c2cc(SCC(F)(F)F)c(C)cc2F)c1=O [compound 19]	100	3.31	100	90	3.27	–	–	–	–	–	–	–
Cc1cc(F)c(-n2ncc(=O)n(CC(C)C)c2=O)cc1SCC(F)(F)F [compound 20]	100	4.03	100	90	4	–	–	–	–	–	–	–
Cc1cc(F)c(-n2ccc(=O)n(CC#N)c2=O)cc1SCC(F)(F)F [compound 73]	–	2.62	90	100	2.65	–	–	–	–	–	–	–
Cc1cc(F)c(-n2ccc(=O)n(CC3CC3)c2=O)cc1SCC(F)(F)F [compound 74]	–	3.24	90	100	3.38	–	–	–	–	–	–	–
Cc1cc(F)c(-n2ccc(=O)n(C(C)C)c2=O)cc1SCC(F)(F)F [compound 75]	–	3.21	–	100	3.35	–	–	–	–	–	–	90
Cc1cc(F)c(-n2ccc(=O)n(Cc3ccc(F)cc3)c2=O)cc1SCC(F)(F)F [compound 76]	–	3.56	90	100	3.74	–	–	–	–	–	–	–
C=CCn1c(=O)ccn(-c2cc(SCC(F)(F)F)c(C)cc2F)c1=O [compound 77]	–	3.08	90	100	3.06	–	–	–	–	–	–	–
CCCn1c(=O)ccn(-c2cc(SCC(F)(F)F)c(C)cc2F)c1=O [compound 78]	–	3.13	90	100	3.27	–	–	–	–	–	–	–
Cc1ccc(-n2ccc(=O)n(CC(F)(F)F)c2=O)cc1SCC(F)(F)F [compound 84]	–	3.16	100	100	3.15	–	–	–	–	–	–	–
Cc1ccc(-n2ccc(=O)n(CC#N)c2=O)cc1SCC(F)(F)F [compound 85]	–	2.55	100	90	2.62	–	–	–	–	–	–	–
Cc1ccc(-n2ccc(=O)n(CC3CC3)c2=O)cc1SCC(F)(F)F [compound 86]	–	3.21	100	90	3.31	–	–	–	–	–	–	–
Cc1ccc(-n2ccc(=O)n(C(C)C)c2=O)cc1SCC(F)(F)F [compound 87]	–	3.18	100	90	3.25	–	–	–	–	–	–	–
Cc1ccc(-n2ccc(=O)n(CC(F)(F)F)c2=O)cc1[S+]([O-])CC(F)(F)F (centres unmarked) [compound 90]	–	2.18	100	100	2.21	–	–	–	–	–	–	–
Cc1cc(C)c(-n2ccc(=O)n(C)c2=O)cc1SCC(F)(F)F [compound 92]	–	2.66	90	90	2.72	–	–	–	–	–	–	–
Cc1cc(C)c([S+]([O-])CC(F)(F)F)cc1-n1ccc(=O)n(CC(F)(F)F)c1=O (centres unmarked) [compound 95]	–	2.40	100	100	2.44	–	–	–	–	–	–	–
CCn1c(=O)ccn(-c2cc([S+]([O-])CC(F)(F)F)c(C)cc2C)c1=O (centres unmarked) [compound 97]	–	1.96	100	90	1.99	–	–	–	–	–	–	–
CCn1c(=O)ccn(-c2ccc(C)c([S+]([O-])CC(F)(F)F)c2)c1=O (centres unmarked) [compound 98]	–	1.77	100	100	1.77	–	–	–	–	–	–	–
Cc1ccc(-n2ccc(=O)n(CC#N)c2=O)cc1[S+]([O-])CC(F)(F)F (centres unmarked) [compound 100]	–	1.63	90	100	1.62	–	–	–	–	–	–	–

From patent publication US9783509B2, “Six-membered C-N-linked aryl sulfide derivatives and aryl sulfoxide derivatives as pest conrol agents” (BAYER CROPSCIENCE AKTIENGESELLSCHAFT, priority 2013, dated 2017)
